In the NIST ThermoML archive (doi:10.1021/acs.jced.7b00458):
± gives the expanded uncertainty stated by the source.

Settings: 100 kPa, Liquid; for electrical conductivity: Alternating current cell with electrodes; for viscosity: Concentric cylinders viscometry; for mass density: Vibrating tube method

CCCC[N+]1(C)CCCCC1.O=S(=O)([N-]S(=O)(=O)C(F)(F)F)C(F)(F)F
Settings	electrical conductivity [S/m]	mass density [kg/m3]	viscosity [mPa·s]
298.15 K	0.139 ± 0.017	1382 ± 1	188.9 ± 3.5
300.15 K	0.153 ± 0.018	1380 ± 1	168 ± 2.9
306.15 K	0.202 ± 0.024	1375 ± 1	120.2 ± 1.6
312.15 K	0.264 ± 0.032	1370 ± 1	88.67 ± 0.85
318.15 K	0.337 ± 0.04	1365 ± 1	67.13 ± 0.5
324.15 K	0.424 ± 0.051	1360 ± 1	52.01 ± 0.34
330.15 K	0.519 ± 0.062	1355 ± 1	41.12 ± 0.29
336.15 K	0.626 ± 0.075	1349 ± 1	33.12 ± 0.23
341.15 K	–	1345 ± 1	27.98 ± 0.2
348.15 K	0.876 ± 0.1	1339 ± 1	22.51 ± 0.16
355.15 K	–	1333 ± 1	18.36 ± 0.13
361.15 K	1.19 ± 0.14	1329 ± 1	15.62 ± 0.11
373.15 K	–	1319 ± 1	11.62 ± 0.08

CC[P+](CC)(CC)CCOC.O=S(=O)([N-]S(=O)(=O)C(F)(F)F)C(F)(F)F
Settings	electrical conductivity [S/m]	mass density [kg/m3]	viscosity [mPa·s]
298.15 K	0.384 ± 0.046	1378 ± 1	48.14 ± 0.34
300.15 K	0.411 ± 0.049	1376 ± 1	44.28 ± 0.31
306.15 K	0.498 ± 0.06	1370 ± 1	34.95 ± 0.25
312.15 K	0.608 ± 0.073	1365 ± 1	28.1 ± 0.2
318.15 K	0.719 ± 0.086	1360 ± 1	22.97 ± 0.16
324.15 K	0.848 ± 0.1	1354 ± 1	19.04 ± 0.14
330.15 K	0.987 ± 0.12	1349 ± 1	16.01 ± 0.11
336.15 K	1.13 ± 0.14	1344 ± 1	13.62 ± 0.1
341.15 K	–	1339 ± 1	11.98 ± 0.09
348.15 K	1.45 ± 0.17	1333 ± 1	10.15 ± 0.07
355.15 K	–	1327 ± 1	8.692 ± 0.062
361.15 K	1.84 ± 0.22	1322 ± 1	7.672 ± 0.055
373.15 K	–	1311 ± 1	5.99 ± 0.044

CCCCC[P+](CC)(CC)CC.O=S(=O)([N-]S(=O)(=O)C(F)(F)F)C(F)(F)F
Settings	electrical conductivity [S/m]	mass density [kg/m3]	viscosity [mPa·s]
298.15 K	0.21 ± 0.025	1304 ± 1	85.3 ± 0.79
300.15 K	0.223 ± 0.027	1302 ± 1	77.43 ± 0.65
306.15 K	0.286 ± 0.034	1297 ± 1	58.68 ± 0.4
312.15 K	0.358 ± 0.043	1292 ± 1	45.42 ± 0.32
318.15 K	0.435 ± 0.052	1287 ± 1	35.82 ± 0.25
324.15 K	0.521 ± 0.063	1282 ± 1	28.79 ± 0.2
330.15 K	0.612 ± 0.073	1277 ± 1	23.5 ± 0.17
336.15 K	0.711 ± 0.085	1272 ± 1	19.46 ± 0.14
341.15 K	–	1268 ± 1	16.79 ± 0.12
348.15 K	0.917 ± 0.11	1262 ± 1	13.86 ± 0.1
355.15 K	–	1256 ± 1	11.58 ± 0.08
361.15 K	1.17 ± 0.14	1251 ± 1	10.02 ± 0.07
373.15 K	–	1241 ± 1	7.531 ± 0.054

CCCC[N+]1(C)CCCC1.O=S(=O)([N-]S(=O)(=O)C(F)(F)F)C(F)(F)F
Settings	electrical conductivity [S/m]	mass density [kg/m3]	viscosity [mPa·s]
298.15 K	0.393 ± 0.039	1395 ± 1	77.76 ± 0.66
300.15 K	0.423 ± 0.042	1393 ± 1	71.11 ± 0.56
306.15 K	0.52 ± 0.052	1388 ± 1	54.97 ± 0.36
312.15 K	0.638 ± 0.064	1382 ± 1	43.41 ± 0.31
318.15 K	0.772 ± 0.077	1377 ± 1	34.92 ± 0.25
324.15 K	0.924 ± 0.092	1372 ± 1	28.56 ± 0.2
330.15 K	1.08 ± 0.11	1367 ± 1	23.69 ± 0.17
336.15 K	1.26 ± 0.13	1361 ± 1	19.91 ± 0.14
341.15 K	–	1357 ± 1	17.37 ± 0.12
348.15 K	1.64 ± 0.16	1351 ± 1	14.53 ± 0.1
355.15 K	–	1345 ± 1	12.31 ± 0.09
361.15 K	2.11 ± 0.21	1340 ± 1	10.78 ± 0.08
373.15 K	–	1330 ± 1	8.272 ± 0.06
